Structures are written as SMILES. Where only a bound is given, the exact number is not on record here.

This assay addresses DNA (cytosine-5)-methyltransferase 1 (Homo sapiens, UniProt P26358). As to the kind of experiment: Biochemical Activity Assay. As for the experimental part: Biochemical activity of DNMT1 analyzed using SPA technology. […] Low control wells contained 5 μL of buffer instead of enzyme. Following a 40 minute incubation, the reaction was quenched upon the addition of 10 μL of stop mixture containing 1 mM SAM (Sigma A7007) and 2 mg/mL PEI beads (Perkin Elmer RPNQ0098).

Chain of DNA (cytosine-5)-methyltransferase 1 (P26358 whole entry): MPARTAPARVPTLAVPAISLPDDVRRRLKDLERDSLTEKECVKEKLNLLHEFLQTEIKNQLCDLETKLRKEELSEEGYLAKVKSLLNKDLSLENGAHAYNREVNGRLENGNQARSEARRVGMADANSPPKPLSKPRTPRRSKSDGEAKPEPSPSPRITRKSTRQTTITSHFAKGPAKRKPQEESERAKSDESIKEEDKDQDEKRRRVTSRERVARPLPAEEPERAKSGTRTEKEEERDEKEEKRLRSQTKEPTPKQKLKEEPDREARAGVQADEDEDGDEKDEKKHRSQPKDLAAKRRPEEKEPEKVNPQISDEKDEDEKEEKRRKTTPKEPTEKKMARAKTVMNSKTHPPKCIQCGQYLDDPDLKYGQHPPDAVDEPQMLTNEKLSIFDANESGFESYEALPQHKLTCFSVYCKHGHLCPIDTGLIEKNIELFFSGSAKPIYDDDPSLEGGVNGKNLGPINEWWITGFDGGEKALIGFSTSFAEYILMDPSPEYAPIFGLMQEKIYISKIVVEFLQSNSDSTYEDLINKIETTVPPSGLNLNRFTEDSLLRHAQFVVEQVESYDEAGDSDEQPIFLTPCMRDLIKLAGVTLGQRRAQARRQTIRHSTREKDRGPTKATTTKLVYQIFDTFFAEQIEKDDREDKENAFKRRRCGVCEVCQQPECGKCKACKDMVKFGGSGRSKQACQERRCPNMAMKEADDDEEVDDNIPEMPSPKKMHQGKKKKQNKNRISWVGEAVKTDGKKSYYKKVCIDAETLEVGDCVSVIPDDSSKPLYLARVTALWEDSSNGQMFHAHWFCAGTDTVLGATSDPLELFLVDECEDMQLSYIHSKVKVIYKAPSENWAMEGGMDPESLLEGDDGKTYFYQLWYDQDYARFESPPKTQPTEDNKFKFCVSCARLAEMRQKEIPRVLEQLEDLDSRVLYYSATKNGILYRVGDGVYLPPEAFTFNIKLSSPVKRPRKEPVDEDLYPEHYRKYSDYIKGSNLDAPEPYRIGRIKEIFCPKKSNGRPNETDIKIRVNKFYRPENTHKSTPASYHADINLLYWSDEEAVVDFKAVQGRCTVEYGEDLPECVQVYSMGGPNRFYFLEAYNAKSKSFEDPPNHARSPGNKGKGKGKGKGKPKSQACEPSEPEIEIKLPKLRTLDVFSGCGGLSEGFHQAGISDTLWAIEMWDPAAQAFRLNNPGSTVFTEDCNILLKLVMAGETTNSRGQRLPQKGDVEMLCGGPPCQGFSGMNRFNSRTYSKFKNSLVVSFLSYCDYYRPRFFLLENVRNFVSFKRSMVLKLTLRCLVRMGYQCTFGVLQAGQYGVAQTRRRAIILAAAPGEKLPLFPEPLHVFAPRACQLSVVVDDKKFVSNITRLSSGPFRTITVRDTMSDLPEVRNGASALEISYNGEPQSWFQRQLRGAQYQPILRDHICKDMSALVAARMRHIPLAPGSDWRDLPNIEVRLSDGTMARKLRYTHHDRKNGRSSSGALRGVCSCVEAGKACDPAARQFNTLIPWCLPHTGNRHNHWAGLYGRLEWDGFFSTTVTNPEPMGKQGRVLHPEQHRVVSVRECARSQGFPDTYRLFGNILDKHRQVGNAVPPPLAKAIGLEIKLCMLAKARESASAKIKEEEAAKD

Usually IC50 stands for the midpoint of a concentration-inhibition curve. Turning to `CCc1c(C#N)c(SCc2ccc(S(N)(=O)=O)cc2)nc(N2CCCN(C)CC2)c1C#N` [US10975056, Example 76], the IC50 was less than 320 nM.

As for `CCc1c(C#N)c(SC(C(N)=O)c2ccccc2)nc(N2CCC(NCC3(C)CCC3)CC2)c1C#N` (centres undefined) [US10975056, Example 466], the half-maximal inhibitory concentration (IC50) is less than 320 nM.

Take `CCc1c(C#N)c(SC(C(N)=O)c2ccccc2)nc(N(C)CC(=O)N2CC[C@@H](CO)C2)c1C#N` (some centres undefined) [US10975056, Example 652]: the IC50 was less than 320 nM. `CCc1c(C#N)c(SC(C(N)=O)c2ccccc2)nc(N2CCC(N3[C@H](C)CC[C@H]3C)CC2)c1C#N` (some centres undefined) [US10975056, Example 472] gave a 50% inhibitory concentration (IC50) of less than 320 nM.

Values taken from BindingDB's records for patent US10975056 (Glaxosmithkline Intellectual Property Development, 2021).
